Results reported in PMC4512978, “Synthesis and evaluation in rats of homologous series of [^18F]-labeled dopamine D2/3 receptor agonists based on the 2-aminomethylchroman scaffold as potential PET tracers” (EJNMMI Research, 2015).

System: D2/3R
Assay: Kinetic analysis of PET data (1TCM, 2TCM, Logan, SRTM);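 as to 2TCM BPND change relative to control: Raclopride 1 mg/kg intravenous pretreatment versus saline controls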;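 as to SRTM BPND change relative to control: Raclopride 1 mg/kg intravenous pretreatment versus saline controls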
Format: in vivo, Sprague-Dawley rats
Parameters: key to SRTM BPND / 1TCM BPND / 2TCM BPND (VT-based): BPND = VT(target)/VT(cerebellum) − 1 (or SRTM, cerebellum reference); SRTM BPND change relative to control / 1TCM BPND change relative to control / 2TCM BPND change relative to control / Logan BPND change relative to control: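 Raclopride 1 mg/kg intravenous pretreatment versus saline controls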; 1TCM VT / 2TCM VT: unit not given here
Experimental: Kinetic analysis is described using the nomenclature proposed by Innis et al.. ROI TACs of [^18F]FEt-AMC13 were analyzed with one-tissue and two-tissue compartmental models of reversible binding (1TCM and 2TCM, respectively) to obtain individual rate constants. From these, the regional distribution volumes (VT) were calculated and compared to those obtained with Logan graphical analysis. Binding potentials (BPND) were calculated from the distribution ratios as VT (target) / VT (cerebellum) – 1, or estimated with the simplified reference tissue model (SRTM) using the cerebellum as reference region.
Metabolite-corrected plasma-derived arterial input function and whole blood time-activity curve were used for Logan, 1TCM, and 2TCM analyses. Fractional cerebral blood volume was set to 3.6 % [27]. For one rat in the raclopride-treated group, no input curves could be obtained; therefore, its PET data were only analyzed with SRTM.
Degree of D2/3R-specific binding of the tracers was characterized by BPND (as given above) or the specific binding ratio (SBR) given as target region activity/cerebellar activity - 1. Both were calculated under control conditions and in response to the raclopride challenge.

[1] = Cortex, raclopride, listed as [18F]FEt-AMC13
[2] = Hippocampus, raclopride, listed as [18F]FEt-AMC13
[3] = Hypothalamus, control rat A, SD could not be estimated

SMILES: Oc1ccc2c(c1)O[C@@H](CNCc1ccc(OCC[18F])cc1)CC2 [[^18F]FEt-AMC13]
- 2TCM k2 (Cortex, control rat C): 0.19 ± 1.58 min⁻¹
- 2TCM k3 (Cortex, control rat C): 1.50 ± 19.49 min⁻¹
- 2TCM k4 (Cortex, control rat C): 1.00 ± 1.64 min⁻¹
- 1TCM K1 (Cortex, control rat D): 0.47 ± 0.02 mL/g/min
- 1TCM k2 (Cortex, control rat D): 0.09 ± 0.01 min⁻¹
- 2TCM K1 (Cortex, control rat D): 1.46 ± 0.45 mL/g/min
- 2TCM k2 (Cortex, control rat D): 6.65 ± 0.77 min⁻¹
- 2TCM k3 (Cortex, control rat D): 2.62 ± 1.18 min⁻¹
- 2TCM k4 (Cortex, control rat D): 0.11 ± 6.33 min⁻¹
- 1TCM BPND (Cortex, raclopride): 0.17±0.05
- 1TCM BPND change relative to control (Cortex, raclopride): -9%
- 1TCM VT (Cortex, raclopride): 5.17±0.60
- 2TCM BPND (VT-based) (Cortex, raclopride): 0.10 ± 0.02
- 2TCM BPND change relative to control (Cortex, raclopride): −27%
- 2TCM VT (Cortex, raclopride): 5.45±0.52
- Logan BPND (Cortex, raclopride): 0.09±0.03
- Logan BPND change relative to control (Cortex, raclopride): -32%
- Logan VT (Cortex, raclopride): 5.42±0.44
- SRTM BPND (Cortex, raclopride): 0.08 ± 0.02
- SRTM BPND change relative to control (Cortex, raclopride): −24%
- 2TCM BPND (VT-based) [1]: 0.10±0.02
- 2TCM BPND change relative to control [1]: -27%
- SRTM BPND [1]: 0.08±0.02
- SRTM BPND change relative to control [1]: –24%
- 1TCM BPND (Hippocampus, control): 0.35±0.11
- 1TCM VT (Hippocampus, control): 6.34±0.71
- 2TCM BPND (VT-based) (Hippocampus, control): 0.30 ± 0.07
- 2TCM VT (Hippocampus, control): 6.62±0.86
- Logan BPND (Hippocampus, control): 0.28±0.04
- Logan VT (Hippocampus, control): 6.49±0.88
- SRTM BPND (Hippocampus, control): 0.26 ± 0.04
- 1TCM K1 (Hippocampus, control rat A): 0.41 ± 0.02 mL/g/min
- 1TCM k2 (Hippocampus, control rat A): 0.06 ± 0.01 min⁻¹
- 2TCM K1 (Hippocampus, control rat A): 2.21 ± 1.25 mL/g/min
- 2TCM k2 (Hippocampus, control rat A): 8.56 ± 3.62 min⁻¹
- 2TCM k3 (Hippocampus, control rat A): 1.60 ± 2.24 min⁻¹
- 2TCM k4 (Hippocampus, control rat A): 0.05 ± 8.88 min⁻¹
- 1TCM K1 (Hippocampus, control rat B): 0.51 ± 0.02 mL/g/min
- 1TCM k2 (Hippocampus, control rat B): 0.08 ± 0.01 min⁻¹
- 2TCM K1 (Hippocampus, control rat B): 0.71 ± 0.07 mL/g/min
- 2TCM k2 (Hippocampus, control rat B): 0.50 ± 0.23 min⁻¹
- 2TCM k3 (Hippocampus, control rat B): 0.50 ± 0.27 min⁻¹
- 2TCM k4 (Hippocampus, control rat B): 0.14 ± 0.03 min⁻¹
- 1TCM K1 (Hippocampus, control rat C): 0.46 ± 0.01 mL/g/min
- 1TCM k2 (Hippocampus, control rat C): 0.08 ± 0.004 min⁻¹
- 2TCM K1 (Hippocampus, control rat C): 0.60 ± 0.12 mL/g/min
- 2TCM k2 (Hippocampus, control rat C): 0.57 ± 0.77 min⁻¹
- 2TCM k3 (Hippocampus, control rat C): 1.17 ± 1.34 min⁻¹
- 2TCM k4 (Hippocampus, control rat C): 0.24 ± 0.09 min⁻¹
- 1TCM K1 (Hippocampus, control rat D): 0.48 ± 0.02 mL/g/min
- 1TCM k2 (Hippocampus, control rat D): 0.08 ± 0.01 min⁻¹
- 2TCM K1 (Hippocampus, control rat D): 101 ± 14615 mL/g/min
- 2TCM k2 (Hippocampus, control rat D): 1246 ± 181990 min⁻¹
- 2TCM k3 (Hippocampus, control rat D): 5.49 ± 4.23 min⁻¹
- 2TCM k4 (Hippocampus, control rat D): 0.07 ± 0.05 min⁻¹
- 1TCM BPND (Hippocampus, raclopride): 0.33±0.09
- 1TCM BPND change relative to control (Hippocampus, raclopride): -8%
- 1TCM VT (Hippocampus, raclopride): 5.88±0.56
- 2TCM BPND (VT-based) (Hippocampus, raclopride): 0.26 ± 0.06
- 2TCM BPND change relative to control (Hippocampus, raclopride): −13%
- 2TCM VT (Hippocampus, raclopride): 6.27±0.63
- Logan BPND (Hippocampus, raclopride): 0.25±0.05
- Logan BPND change relative to control (Hippocampus, raclopride): -10%
- Logan VT (Hippocampus, raclopride): 6.25±0.56
- SRTM BPND (Hippocampus, raclopride): 0.23 ± 0.05
- SRTM BPND change relative to control (Hippocampus, raclopride): −13%
- 2TCM BPND (VT-based) [2]: 0.26±0.06
- 2TCM BPND change relative to control [2]: -13%
- SRTM BPND [2]: 0.23±0.05
- SRTM BPND change relative to control [2]: –13%
- 1TCM BPND (Hypothalamus, control): 0.25±0.04
- 1TCM VT (Hypothalamus, control): 5.86±0.60
- 2TCM BPND (VT-based) (Hypothalamus, control): 0.22 ± 0.03
- 2TCM VT (Hypothalamus, control): 6.20±0.55
- Logan BPND (Hypothalamus, control): 0.21±0.04
- Logan VT (Hypothalamus, control): 6.10±0.44
- SRTM BPND (Hypothalamus, control): 0.21 ± 0.03
- 1TCM K1 (Hypothalamus, control rat A): 0.40 ± 0.03 mL/g/min
- 1TCM k2 (Hypothalamus, control rat A): 0.06 ± 0.01 min⁻¹
- 2TCM K1 [3]: 273 mL/g/min
- 2TCM k2 [3]: 1355 min⁻¹
- 2TCM k3 [3]: 1.65 min⁻¹
- 2TCM k4 [3]: 0.05 min⁻¹
- 1TCM K1 (Hypothalamus, control rat B): 0.53 ± 0.03 mL/g/min
- 1TCM k2 (Hypothalamus, control rat B): 0.09 ± 0.01 min⁻¹
- 2TCM K1 (Hypothalamus, control rat B): 1.17 ± 0.88 mL/g/min
- 2TCM k2 (Hypothalamus, control rat B): 3.45 ± 1.30 min⁻¹
- 2TCM k3 (Hypothalamus, control rat B): 2.22 ± 6.73 min⁻¹
- 2TCM k4 (Hypothalamus, control rat B): 0.13 ± 14.19 min⁻¹
- 1TCM K1 (Hypothalamus, control rat C): 0.50 ± 0.02 mL/g/min
- 1TCM k2 (Hypothalamus, control rat C): 0.08 ± 0.01 min⁻¹
- 2TCM K1 (Hypothalamus, control rat C): 0.64 ± 0.24 mL/g/min
- 2TCM k2 (Hypothalamus, control rat C): 0.63 ± 1.60 min⁻¹
- 2TCM k3 (Hypothalamus, control rat C): 1.37 ± 2.85 min⁻¹
- 2TCM k4 (Hypothalamus, control rat C): 0.27 ± 0.20 min⁻¹
- 1TCM K1 (Hypothalamus, control rat D): 0.59 ± 0.04 mL/g/min
- 1TCM k2 (Hypothalamus, control rat D): 0.12 ± 0.02 min⁻¹
- 2TCM K1 (Hypothalamus, control rat D): 680 ± 116990 mL/g/min
- 2TCM k2 (Hypothalamus, control rat D): 3105 ± 534810 min⁻¹
- 2TCM k3 (Hypothalamus, control rat D): 2.16 ± 0.48 min⁻¹
